The subject of the test is S. cerevisiae tim10-1 mutant growth, luminescence. As to the kind of experiment: tim10-1 yeast growth inhibition potency – luminescence, S. cerevisiae, uHTS hits, dose response (AID 493003).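 Note: yeast growth measured after about 22 hours at 25 °C.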

Molecules are shown by their SMILES. pIC50: −log10 of the molar value. The source made the active and inactive calls. The rule behind the calls is not given here.

Broadly, the pIC50 is −log10 of the IC50, conventionally taken in molar units. Regarding `Cn1ncc2c(Nc3ccc(Br)cc3)nc(Nc3ccc(Br)cc3)nc21`, the negative logarithm of the IC50 (pIC50) is 4.73.

As for `O=C(Nc1cccc(C(F)(F)F)c1)c1cccnc1NCCc1ccccc1`, the pIC50 is 4.33.

For `COc1ccc(C(CCNC(C)c2ccccc2)c2ccc(F)cc2)cc1` (stereo not given), the negative-log IC50 (pIC50) was 4.69.

Turning to `Cc1ccccc1NC(=S)N(Cc1ccccn1)Cc1ccccc1Cl`, the negative-log IC50 (pIC50) was 4.68. Consider `O/N=C(\c1ccc(Cl)cc1Cl)c1ncc(C(F)(F)F)cc1Cl`, for which the pIC50 is 4.71.

The IC50 is the midpoint of a concentration-inhibition curve. For the compound `COCCNC(=S)N1CCN(c2nc(-c3ccccc3)cs2)CC1`, the IC50 was > 100 µM (inactive).

Turning to `Cc1nc2ccc(Nc3nc4cc(S(=O)(=O)N5CCOCC5)ccc4o3)cc2s1`, the pIC50 is 4.71. As for `Cc1nn(Cc2c(F)c(F)c(F)c(F)c2F)c(C)c1NC(=O)c1ccc(COc2ccc(Cl)cc2Cl)o1`, the negative logarithm of the IC50 (pIC50) was 4.59. For `Cc1sc2ncnc(N3CCN(CCOc4ccc(Cl)cc4)CC3)c2c1C`, the negative logarithm of the IC50 (pIC50) is 4.42.

In the case of `CC(C)(C)c1ccc(-c2cc(-c3ccccc3O)[nH]n2)cc1`, the pIC50 was 4.41. As for `CNC(=O)c1ccsc1NC(=O)c1ccc(Cl)s1`, the pIC50 is 4.19. In the case of `CCc1c(C)[nH]n(-c2nc(-c3ccccc3)cs2)c1=O`, the negative-log IC50 (pIC50) is 4.42. Same read-out and setting: the figure for `N/C(=N\OC(=O)c1ccc(F)cc1)c1ccc(Br)cc1` is 5.18; for `Cc1ccc(NC(=S)NNC(=O)CSc2nc3ccccc3c(=O)n2-c2ccc(C)cc2)cc1` it is 4.35; for `Cc1ccc(C(=O)O/N=C(\N)c2ccccn2)c(C)c1` it is 4.77. Still for that read-out and setting: the figure for `Cc1nc(CN2CCN(S(=O)(=O)c3c(Cl)cc(Br)cc3Cl)CC2)cs1` is 4.73; for `O=[N+]([O-])c1ccc2oc(C(O)c3cccc(Cl)c3)cc2c1` (stereo not given) it is 4.82; for `Cc1ccc(-n2cc(-c3ccc([N+](=O)[O-])cc3)[nH]c2=S)c(C)c1` it is 4.06. For `N#Cc1sc2nc(C3CC3)cc(-c3ccc(Cl)cc3)c2c1N`, the IC50 was > 100 µM (inactive). Take `Cc1cc(NC(=O)c2ccccc2Oc2ccccc2)no1`: the pIC50 was 4.22. The same measure, in the same setting: the figure for `O=C(/C=C/c1ccccc1)CC(O)(c1ccccc1)C(F)(F)F` (stereo not given) is 4.62. On to `Cc1cccc(C(=O)CC(=O)c2cc(Cl)ccc2O)c1`, for which the pIC50 was 4.72.

As to `Fc1cccc(-c2cc3nc4c(c(NCc5ccco5)n3n2)CCCC4)c1`, the negative logarithm of the IC50 (pIC50) was 4.47. Take `FC(F)C(F)(F)C(F)(F)C(F)(F)c1cc(-c2ccccc2)n[nH]1`: the negative-log IC50 (pIC50) was 4.82. Same read-out and setting: the figure for `OC(COc1ccccc1)Cn1c2ccccc2c2ccccc21` (stereo not given) is 4.53; for `COC(=O)c1ccc(N2C(=O)CC(N(C)CCc3ccc(OC)c(OC)c3)C2=O)cc1` (stereo not given) it is 4.73.

As to `O=[N+]([O-])c1ccccc1N/N=C/c1c[nH]c2ccccc12`, the pIC50 is 4.86.

In the case of `CCC(CO)Nc1nc2ccc(Cl)cc2c2ccccc12` (stereo not given), the pIC50 was 4.77. Same read-out and setting: the figure for `CCN1C(=O)/C(=C/c2c(C)nn(C)c2C)SC1=S` is 4.61; for `Cc1c(C(=O)N2CCN(c3ccc(C(F)(F)F)cn3)CC2)oc2ccccc12` it is 4.38; for `O=S(=O)(CCN(CCS(=O)(=O)C(F)(F)F)CC1CCCO1)C(F)(F)F` (stereo not given) it is 5.11. Same read-out and setting: the figure for `COc1ccc(-c2nn(-c3ccccc3)cc2/C=C(\CC(=O)O)c2nc3ccccc3s2)cc1OC` is 4.22; for `N/C(=N\OC(=O)CCCc1ccccc1)c1ccccc1` it is 4.70; for `COc1cc(/C=C/c2ccc3cccc(O)c3n2)c(Br)cc1O` it is 4.81. On the same count and under the same terms, the figure for `O=C(c1ccco1)N1CCN(c2ncnc3scc(-c4ccccc4)c23)CC1` is 4.75.

On to `CN1CCc2c(C#N)c(N3CCCCC3)nc(NCc3ccccc3)c2C1`, for which the pIC50 is 4.80. Still for that read-out and setting: the figure for `Nc1cccc(Nc2nc(OC(C(F)(F)F)C(F)(F)F)nc(OC(C(F)(F)F)C(F)(F)F)n2)c1` is 4.40; for `O=C(CN1CCN(S(=O)(=O)c2ccc3ccccc3c2)CC1)Nc1ccc2c(c1)CCC2` it is 4.44; for `N/C(=N\OC(=O)CCCOc1ccc(Cl)cc1Cl)c1ccccn1` it is 4.47.

Turning to `CC(C)C(c1nnnn1C1CCCC1)N1CCCc2ccccc21` (stereo not given), the pIC50 was 4.85.

`CC(C)(C)C(=O)Nc1nnc(SCc2ccc(F)cc2)s1`: the pIC50 was 4.37.

For `CC1CCCCN1S(=O)(=O)c1ccc2c(c1)CCN2C(=O)C1CCC1` (stereo not given), the pIC50 was 4.21.

Turning to `O=C(Nc1ccc2c(c1)OCO2)c1cccc2c1C(=O)N(Cc1cccnc1)C2`, the pIC50 was 4.39. The same measure, in the same setting: the figure for `CC/C(=N\NC(=S)Nc1cc(C)ccc1C)c1ccc(OC(F)F)cc1` is 4.46. With `O=C(CS(=O)(=O)c1ccccc1)Nc1nc(-c2ccccc2)cs1`, the pIC50 is 4.62. Same read-out and setting: the figure for `Cc1[nH]nc2c1-c1nc3ccccc3nc1C(C)(C)C2` is 4.62; for `N/C(=N\OC(=O)c1cccc(Cn2cc(C(F)(F)F)ccc2=O)c1)c1ccccc1` it is 4.63; for `Clc1ccc(CNc2nc(CN3CCOCC3)nc3scc(-c4ccccc4)c23)cc1` it is 4.88. The same measure, in the same setting: the figure for `CC1CCN(c2ccccc2NC(=S)NC(=O)C(C)(C)C)CC1` is 4.12; for `CCC1CCCCN1c1nc(-c2ccncc2)nc2ccccc12` (stereo not given) it is 4.46; for `Cc1c(Cl)cccc1NC(=O)c1cccc(OC(F)F)c1` it is 4.48.

On to `O=C(NCCC1=CCCCC1)NC12CC3CC(CC(C3)C1)C2`, for which the pIC50 is 4.29.

With `CCOC(=O)C1CCN(C(=O)c2oc3ccc4c(c3c2C)C(O)CC2(CCCCC2)O4)CC1` (stereo not given), the negative logarithm of the IC50 (pIC50) was 4.59.

With `CC(=O)c1ccc(NC(=S)NC(C)c2ccc(Cl)cc2Cl)cc1` (stereo not given), the negative-log IC50 (pIC50) was 4.88. Still for that read-out and setting: the figure for `CSc1nc(N)nc(-c2cccs2)c1C#N` is 4.49. The same measure, in the same setting: the figure for `N#C/C(=N/Nc1ccc(OC(F)(F)F)cc1)C(N)=S` is 5.28; for `Cc1nn(Cc2ccc(Cl)cc2)c(C)c1NC(=O)c1noc2c1CCCCC2` it is 4.63. In the case of `Cn1c(NCc2c(O)ccc3ccccc23)nc2ccccc21`, the IC50 is > 100 µM (inactive).

Take `COc1ccc(Br)cc1[C@H]1[C@@H]2C=CCC[C@@]2(C)C(=O)N1Cc1ccccc1`: the pIC50 is 4.92. Turning to `Cc1cc(N)n2ncc(-c3ccc(F)cc3)c2n1`, the pIC50 was 4.44. Consider `Cc1nn2c(c1-c1ccc(Cl)cc1)N=C(c1ccco1)CC2c1ccccc1` (stereo not given), for which the pIC50 was 4.63. With `C=CCNC(=S)NNc1nc2c(c(=O)[nH]1)C1(CCCC1)Cc1ccccc1-2`, the negative logarithm of the IC50 (pIC50) is 4.56. On the same count and under the same terms, the figure for `CCCCCc1ccc(OCCCC[n+]2ccccc2)c(CCCCC)c1` is 4.61; for `Cc1ccc(Nc2nc(Cl)nc(N(C)C#N)n2)cc1` it is 4.60.

For the compound `COC(=O)c1c(N2C(=O)CC(Sc3ccccc3C(=O)O)C2=O)sc2c1CCCC2` (stereo not given), the negative-log IC50 (pIC50) was 4.91. Same read-out and setting: the figure for `OCCN1CCN(C2Cc3cc(Cl)ccc3Sc3ccc(Cl)cc32)CC1` (stereo not given) (tested in a mixture with another compound) is 4.69. Consider `Cc1nn(-c2ccc(F)cc2)c(C)c1NS(=O)(=O)c1ccc(Cl)cc1`, for which the pIC50 is 4.70. `Cc1cc(NC(=O)C2CC2)ncc1NC(=O)C12CC3CC(CC(C3)C1)C2`: the IC50 is > 100 µM (inactive). With `Cc1nn(-c2ccc(Cl)cc2)c2[nH]c(CCl)cc(=O)c12`, the pIC50 is 4.47. With `Cc1ccnn2cc3c(=O)n(C)c(=O)n(C)c3c12`, the pIC50 is 4.20. On the same count and under the same terms, the figure for `N#C/C(=C/c1ccc(N2CCCCCC2)o1)c1cccc(F)c1` is 4.83. Still for that read-out and setting: the figure for `O=C1c2cccc(Cl)c2C(=O)c2c1cccc2N1CCCC1` is 4.74.

For the compound `O=C(/C=C/c1ccccc1)CC(O)(c1ccccc1)C(F)(F)C(F)F` (stereo not given), the negative-log IC50 (pIC50) was 4.79.

As to `COc1cc(/C=C/C(=O)CC(=O)/C=C/c2ccc(O)c(OC)c2)ccc1O`, the pIC50 is 4.71. Same read-out and setting: the figure for `CCCN(CC1COc2ccccc2O1)C(=S)Nc1ccc(C)cc1` (stereo not given) is 4.47.

With `COc1ccc(Sc2cnn(-c3ccccc3)c(=O)c2Cl)cc1`, the pIC50 was 4.45. On the same count and under the same terms, the figure for `O=C(CN1CCN(S(=O)(=O)c2ccc(F)cc2)CC1)Nc1ccc(Cl)c(C(F)(F)F)c1` is 4.73; for `CCCCCCCCCCOC(=O)Cn1c(COc2ccccc2OC)[n+](C)c2ccccc21` it is 4.96; for `CC(C)(C)c1ccc(C(=O)CC(Sc2ccc(Cl)cc2)C(=O)O)cc1` (stereo not given) it is 4.56. Take `CN(/N=C/c1ccc([N+](=O)[O-])o1)c1ccccc1`: the negative logarithm of the IC50 (pIC50) was 4.49. Take `O=C(/C(N=Nc1cccc(C(F)(F)F)c1)=C(/O)c1cccs1)C(F)(F)F`: the IC50 is > 100 µM (inactive). With `Cc1onc(-c2ccc3c(c2)OCO3)c1-c1ccc2[nH]ccc2c1`, the negative logarithm of the IC50 (pIC50) was 4.84.

As for `C=Cc1ncc(OC)c2c1[nH]c1ccccc12`, the pIC50 was 4.60. Same read-out and setting: the figure for `N/C(=N\OC(=O)CCCc1ccccc1)c1ccc([N+](=O)[O-])cc1` is 4.55. As for `CCCCNC(=S)Nc1ccc(C(F)(F)F)cc1`, the negative-log IC50 (pIC50) is 4.74.

For the compound `COc1ccc2cc3cc(C(=O)NCCN4CCN(Cc5ccccc5)CC4)oc3nc2c1`, the negative-log IC50 (pIC50) was 4.55. Same read-out and setting: the figure for `C[C@@]12CCC=C[C@H]1[C@H](c1ccc3ccccc3c1)N(Cc1ccccc1)C2=O` is 4.65. Still for that read-out and setting: the figure for `N#C/C(=C\c1c[nH]c2ccc(Br)cc12)c1ccccn1` is 4.48. Take `COc1ccc(Cl)cc1NC(=O)CN(C)C(=O)C12CC3CC(CC(Cl)(C3)C1)C2`: the negative logarithm of the IC50 (pIC50) is 5.02.

For the compound `O=C1CC(Sc2nnnn2-c2ccccc2)C(=O)N1c1cccc(Cl)c1` (stereo not given), the pIC50 was 5.04.

With `CCCCC(CC)C(=O)Nc1ncc([N+](=O)[O-])s1` (stereo not given), the negative-log IC50 (pIC50) was 4.71.

Consider `S=C(NCCSCc1ccc(Cl)cc1)Nc1ccccc1`, for which the pIC50 was 4.71. Same read-out and setting: the figure for `Nc1nc(-c2ccc(Br)s2)c(Br)s1` is 4.63; for `O=C(c1ccc2c(c1)OCCO2)N1CCN(c2ncc(C(F)(F)F)cc2Cl)CC1` it is 4.16.

In the case of `O=C(/C=C\c1ccc(-c2ccccc2)o1)c1ccccc1`, the pIC50 is 5.26. On the same count and under the same terms, the figure for `N/C(=N\OC(=O)CCCOc1ccc(Cl)cc1Cl)c1ccncc1` is 4.32. In the case of `Cc1ccc(NC(=O)c2cc(S(=O)(=O)NCCC3=CCCCC3)ccc2F)cc1`, the pIC50 was 4.97. `CN(c1ccccc1)C1CCCCC1NS(=O)(=O)c1ccc(Cl)cc1` (stereo not given): the pIC50 is 4.18. In the case of `O=S(=O)(NCCNc1ncc(C(F)(F)F)cc1Cl)C(F)(F)F`, the pIC50 was 4.58. In the case of `CCOc1ccc(-c2n[nH]c(C)c2Oc2ccc(OC)cc2)c(O)c1`, the pIC50 is 4.79.

Source of the values: PubChem BioAssay AID493003 (Sanford-Burnham Center for Chemical Genomics, 2010).
